Test systems include ACHN renal; SK-MEL-28 melanoma; RPMI-8226 leukemia; KM12 colon; A498 renal; DU-145 prostate; HCT-116 colon; UO-31 renal; SF-539 CNS; TK-10 renal; SR leukemia; LOX IMVI melanoma.
What all share (experiment): inhibition of tumour cell growth, NCI panel, 48 h

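In this assay, cells in 96-well plates receive the compound at five concentrations for 48 hours. Endpoints are linearly interpolated between the surrounding concentrations. TGI marks complete inhibition of growth.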

Take `O=C(/C=C/c1ccc(O)c(O)c1)NC(COC(=O)/C=C/c1ccc(O)c(O)c1)C(=O)O` (centres undefined): the TGI with ACHN renal, with SK-MEL-28 melanoma, in the test with RPMI-8226 leukemia, with KM12 colon, with A498 renal and with DU-145 prostate was greater than 100 µM throughout. In addition, the TGI in the test on HCT-116 colon, in the test on UO-31 renal, with SF-539 CNS, with TK-10 renal, in the test with SR leukemia and with LOX IMVI melanoma was greater than 100 µM throughout.
As to `CN1CC=C(c2cccn2C)CC1`, the TGI in the test with ACHN renal, in the test on SK-MEL-28 melanoma, in the test with RPMI-8226 leukemia, in the test with KM12 colon, in the test with DU-145 prostate and with HCT-116 colon was greater than 100 µM throughout. Also, the TGI with UO-31 renal, in the test on TK-10 renal, in the test with SR leukemia and in the test with LOX IMVI melanoma was greater than 100 µM each time.
As for `COc1ccc(NS(=O)c2c(C)cc(C)cc2C)cc1` (centres undefined), the TGI was greater than 100 µM in the test with ACHN renal; greater than 100 µM in the test with SK-MEL-28 melanoma; greater than 100 µM in the test with RPMI-8226 leukemia; 98.8 µM with KM12 colon; greater than 100 µM in the test on DU-145 prostate; greater than 100 µM in the test with HCT-116 colon. Further, the TGI in the test on UO-31 renal was 61.1 µM; in the test with SF-539 CNS it was 53.3 µM; with TK-10 renal, greater than 100 µM; in the test with SR leukemia, greater than 100 µM; with LOX IMVI melanoma, greater than 100 µM.
For the compound `CO[C@H]1O[C@@H]2OC3(C)CCC4[C@H](C)CCC([C@H]1C)[C@]42OO3` (some centres undefined), the TGI in the test on ACHN renal, with SK-MEL-28 melanoma, in the test with RPMI-8226 leukemia, in the test with A498 renal, in the test with DU-145 prostate and in the test on HCT-116 colon was greater than 100 µM throughout. The TGI with UO-31 renal, in the test on SF-539 CNS, with SR leukemia and in the test with LOX IMVI melanoma was greater than 100 µM in each case.
Turning to `O=c1nc2c(c(-c3ccc(F)cc3)[nH]1)COC/C2=C\c1ccc(F)cc1`, the TGI in the test with ACHN renal, in the test with RPMI-8226 leukemia, with KM12 colon, in the test on A498 renal, with DU-145 prostate and with HCT-116 colon was greater than 100 µM in each case. Moreover, the TGI in the test with UO-31 renal, with SF-539 CNS, with TK-10 renal, with SR leukemia and with LOX IMVI melanoma was greater than 100 µM in each case.
Turning to `CC(C)COP(C)(=O)C(N)(C(F)(F)F)C(F)(F)F` (centres undefined), the TGI in the test on ACHN renal, with SK-MEL-28 melanoma, in the test with RPMI-8226 leukemia, in the test with KM12 colon, in the test on DU-145 prostate and in the test on HCT-116 colon was greater than 100 µM in each case. The TGI in the test on UO-31 renal, with SF-539 CNS, in the test with TK-10 renal, with SR leukemia and in the test with LOX IMVI melanoma was greater than 100 µM in each case.
With `CCc1ccc(Nc2cc(=O)n(C)c(SCc3ccccc3)n2)cc1`, the TGI is greater than 100 µM in the test with ACHN renal; greater than 100 µM with KM12 colon; 29.7 µM in the test on A498 renal; greater than 100 µM in the test with DU-145 prostate; 57.1 µM with HCT-116 colon; greater than 100 µM with UO-31 renal. Further, the TGI in the test with SF-539 CNS, in the test with TK-10 renal, with SR leukemia and in the test with LOX IMVI melanoma was greater than 100 µM each time.
Take `Cn1nc(-c2ccccc2)c2c(-c3ccccc3)c3cc(Cl)ccc3nc21`: the TGI in the test on ACHN renal, in the test with SK-MEL-28 melanoma, in the test with RPMI-8226 leukemia, with KM12 colon, in the test on A498 renal and in the test with DU-145 prostate was greater than 100 µM throughout. Moreover, the TGI in the test with HCT-116 colon, with UO-31 renal, in the test on TK-10 renal, in the test with SR leukemia and in the test on LOX IMVI melanoma was greater than 100 µM throughout.
For the compound `O=C1CCCCC1C(O)(C(F)(F)F)C(F)(F)Cl` (centres undefined), the TGI in the test with ACHN renal, with SK-MEL-28 melanoma, in the test on RPMI-8226 leukemia, in the test on KM12 colon, in the test on A498 renal and in the test with DU-145 prostate was greater than 10 µM throughout. In addition, the TGI in the test on HCT-116 colon, in the test on SF-539 CNS, with TK-10 renal, in the test with SR leukemia and in the test on LOX IMVI melanoma was greater than 10 µM each time.
Turning to `Fc1cccc(C2SCc3nc4cc5ccccc5cc4n32)c1` (centres undefined), the TGI in the test with ACHN renal, in the test on SK-MEL-28 melanoma, with RPMI-8226 leukemia, with KM12 colon, in the test with DU-145 prostate and with HCT-116 colon was greater than 100 µM each time. For the same compound, the TGI in the test with UO-31 renal, in the test with SF-539 CNS, with TK-10 renal, in the test with SR leukemia and in the test with LOX IMVI melanoma was greater than 100 µM in each case.
On to `Cc1ccc(SCC(CF)OC(C)n2cnc3c(Cl)nc(N)nc32)cc1` (centres undefined), for which the TGI with ACHN renal, in the test with SK-MEL-28 melanoma, in the test with RPMI-8226 leukemia, in the test on KM12 colon, in the test with DU-145 prostate and with HCT-116 colon was greater than 100 µM throughout. In addition, the TGI with UO-31 renal, in the test with SF-539 CNS, with TK-10 renal, in the test on SR leukemia and with LOX IMVI melanoma was greater than 100 µM in each case.
On to `S=C(Nc1ccc2c(c1)oc1ccccc12)c1cccs1`, for which the TGI in the test with ACHN renal, with SK-MEL-28 melanoma, in the test on A498 renal, with DU-145 prostate, in the test on HCT-116 colon and in the test with UO-31 renal was greater than 100 µM throughout. The TGI in the test with SF-539 CNS, in the test on TK-10 renal, in the test on SR leukemia and with LOX IMVI melanoma was greater than 100 µM each time.

These data come from PubChem BioAssay (NCI).
